Assay results taken from patent US7009052B2, “Sulfonamide derivatives” (Warner Lambert Company LLC, priority 2003, dated 2006).

Target: T1, androgen receptor (Homo sapiens, UniProt P10275)
T1 sequence (P10275 1-920 Q868H): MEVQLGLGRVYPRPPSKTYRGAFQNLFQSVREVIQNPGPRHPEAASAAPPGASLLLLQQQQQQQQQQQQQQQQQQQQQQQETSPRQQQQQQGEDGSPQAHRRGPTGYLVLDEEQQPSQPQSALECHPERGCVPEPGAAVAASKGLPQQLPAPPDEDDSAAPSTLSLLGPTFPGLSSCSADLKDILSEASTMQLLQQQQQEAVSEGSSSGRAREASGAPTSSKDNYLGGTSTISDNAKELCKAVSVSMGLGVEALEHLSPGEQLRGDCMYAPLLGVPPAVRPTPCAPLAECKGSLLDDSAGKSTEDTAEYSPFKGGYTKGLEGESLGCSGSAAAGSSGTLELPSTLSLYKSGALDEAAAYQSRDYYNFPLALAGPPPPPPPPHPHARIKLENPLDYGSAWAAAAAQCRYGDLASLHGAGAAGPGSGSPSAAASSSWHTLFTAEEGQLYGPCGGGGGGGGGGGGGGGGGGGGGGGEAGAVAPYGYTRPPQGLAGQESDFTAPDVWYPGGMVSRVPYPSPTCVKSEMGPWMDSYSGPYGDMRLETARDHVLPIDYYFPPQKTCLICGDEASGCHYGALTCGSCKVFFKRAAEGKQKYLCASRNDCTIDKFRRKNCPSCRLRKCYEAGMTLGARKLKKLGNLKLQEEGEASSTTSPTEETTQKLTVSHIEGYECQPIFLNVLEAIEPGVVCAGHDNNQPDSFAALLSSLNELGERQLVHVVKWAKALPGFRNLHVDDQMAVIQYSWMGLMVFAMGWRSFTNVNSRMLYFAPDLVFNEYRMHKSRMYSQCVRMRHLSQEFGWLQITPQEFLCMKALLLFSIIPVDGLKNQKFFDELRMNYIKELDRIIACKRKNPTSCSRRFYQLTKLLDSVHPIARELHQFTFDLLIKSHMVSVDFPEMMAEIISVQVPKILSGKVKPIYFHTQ
Experiment: AR Antagonist Cell Assay (MMTV-luciferase reporter, DHT-induced)
Assay type: cell-based
Conditions: MDA-MB453-MMTV clone 54-19 cells, 100 pM DHT, 17 hr
In short: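 Stably transfected MDA-MB453 cells carrying an ARE-containing MMTV promoter–firefly luciferase reporter, pretreated 30 min with compound at 10 uM or 1 uM in 1% charcoal-treated serum medium. Then stimulated with 100 pM DHT for 17 hr at 37° C. and luminescence read; expressed as % inhibition of DHT-induced signal.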

| Compound | IC50 |
| --- | --- |
| Cc1cccc(C)c1NS(=O)(=O)c1ccc2[nH]c(=O)cc(C(F)(F)F)c2c1 [Example 90, 2-Oxo-4-trifluoromethyl-1,2-dihydroquinoline-6-sulfonic acid(2,6-dimethylphenyl)amide] | > 10000 nM |
| O=c1cc(C(F)(F)F)c2cc(S(=O)(=O)Nc3cccc(CO)c3)ccc2[nH]1 [Example 91, 2-Oxo-4-trifluoromethyl-1,2-dihydroquinoline-6-sulfonic acid(3-hydroxymethylphenyl)amide] | 3130 nM |
| COc1ccccc1NS(=O)(=O)c1ccc2[nH]c(=O)cc(C(F)(F)F)c2c1 [Example 92, 2-Oxo-4-trifluoromethyl-1,2-dihydroquinoline-6-sulfonic acid(2-methoxyphenyl)amide] | > 10000 nM |
| O=c1cc(C(F)(F)F)c2cc(S(=O)(=O)Nc3ccc4ncccc4c3)ccc2[nH]1 [Example 93, 2-Oxo-4-trifluoromethyl-1,2-dihydroquinoline-6-sulfonic acidquinolin-6-ylamide] | 3460 nM |
| O=c1cc(C(F)(F)F)c2cc(S(=O)(=O)Nc3ccc(F)cc3F)ccc2[nH]1 [Example 94, 2-Oxo-4-trifluoromethyl-1,2-dihydroquinoline-6-sulfonic acid(2,4-difluorophenyl)amide] | > 10000 nM |
| N#CCc1ccc(NS(=O)(=O)c2ccc3[nH]c(=O)cc(C(F)(F)F)c3c2)cc1 [Example 95, 2-Oxo-4-trifluoromethyl-1,2-dihydroquinoline-6-sulfonic acid(4-cyanomethylphenyl)amide] | 840 nM |
| O=c1cc(C(F)(F)F)c2cc(S(=O)(=O)Nc3ccc4c(c3)CCC4)ccc2[nH]1 [Example 96, 2-Oxo-4-trifluoromethyl-1,2-dihydroquinoline-6-sulfonic acidindan-5-ylamide] | 140 nM |
| CC(C)c1ccc(NS(=O)(=O)c2ccc3[nH]c(=O)cc(C(F)(F)F)c3c2)cc1 [Example 97, 2-Oxo-4-trifluoromethyl-1,2-dihydroquinoline-6-sulfonic acid(4-isopropylphenyl)amide] | 200 nM |
| O=c1cc(C(F)(F)F)c2cc(S(=O)(=O)Nc3ccc4c(c3)OCO4)ccc2[nH]1 [Example 98, 2-Oxo-4-trifluoromethyl-1,2-dihydroquinoline-6-sulfonic acidbenzo[1,3]dioxol-5-ylamide] | > 10000 nM |
| Cc1ccc(-c2ccccc2)cc1NS(=O)(=O)c1ccc2[nH]c(=O)cc(C(F)(F)F)c2c1 [Example 99, 2-Oxo-4-trifluoromethyl-1,2-dihydroquinoline-6-sulfonic acid(4-methylbiphenyl-3-yl)amide] | > 10000 nM |
| CC(O)c1cccc(NS(=O)(=O)c2ccc3[nH]c(=O)cc(C(F)(F)F)c3c2)c1 (stereo not drawn) [Example 100, 2-Oxo-4-trifluoromethyl-1,2-dihydroquinoline-6-sulfonic acid[3-(1-hydroxyethyl)phenyl]amide] | > 10000 nM |
| CSc1cccc(NS(=O)(=O)c2ccc3[nH]c(=O)cc(C(F)(F)F)c3c2)c1 [Example 101, 2-Oxo-4-trifluoromethyl-1,2-dihydroquinoline-6-sulfonic acid(3-methylsulfanylphenyl)amide] | 360 nM |
| COc1ccc(OC)c(NS(=O)(=O)c2ccc3[nH]c(=O)cc(C(F)(F)F)c3c2)c1 [Example 102, 2-Oxo-4-trifluoromethyl-1,2-dihydroquinoline-6-sulfonic acid(2,5-dimethoxyphenyl)amide] | 7860 nM |
| COc1cc(NS(=O)(=O)c2ccc3[nH]c(=O)cc(C(F)(F)F)c3c2)cc(OC)c1 [Example 103, 2-Oxo-4-trifluoromethyl-1,2-dihydroquinoline-6-sulfonic acid(3,5-dimethoxyphenyl)amide] | 200 nM |
| Cn1nc(C(C)(C)C)cc1NS(=O)(=O)c1ccc2[nH]c(=O)cc(C(F)(F)F)c2c1 [Example 104, 2-Oxo-4-trifluoromethyl-1,2-dihydroquinoline-6-sulfonic acid(5-tert-butyl-2-methyl-2H-pyrazol-3-yl)amide] | > 10000 nM |
| CC(C)Oc1cccc(NS(=O)(=O)c2ccc3[nH]c(=O)cc(C(F)(F)F)c3c2)c1 [Example 105, 2-Oxo-4-trifluoromethyl-1,2-dihydroquinoline-6-sulfonic acid(3-isopropoxyphenyl)amide] | 450 nM |
| O=c1cc(C(F)(F)F)c2cc(S(=O)(=O)Nc3cccc(OC(F)F)c3)ccc2[nH]1 [Example 106, 2-Oxo-4-trifluoromethyl-1,2-dihydroquinoline-6-sulfonic acid(3-difluoromethoxyphenyl)amide] | 260 nM |

| Compound | IC50 |
| --- | --- |
| Cc1cc2c(NS(=O)(=O)c3ccc4[nH]c(=O)cc(C(F)(F)F)c4c3)cccc2nn1 [Example 108, 2-Oxo-4-trifluoromethyl-1,2-dihydroquinoline-6-sulfonic acid(3-methylcinnolin-5-yl)amide] | > 10000 nM |
| O=c1cc(C(F)(F)F)c2cc(S(=O)(=O)Nc3cccc(C(F)(F)F)c3)ccc2[nH]1 [Example 109, 2-Oxo-4-trifluoromethyl-1,2-dihydroquinoline-6-sulfonic acid(3-trifluoromethylphenyl)amide] | 210 nM |
| O=c1cc(C(F)(F)F)c2cc(S(=O)(=O)Nc3ccccc3Br)ccc2[nH]1 [Example 110, 2-Oxo-4-trifluoromethyl-1,2-dihydroquinoline-6-sulfonic acid(2-bromophenyl)amide] | > 10000 nM |
| Cc1cc(=O)oc2cc(NS(=O)(=O)c3ccc4[nH]c(=O)cc(C(F)(F)F)c4c3)ccc12 [Example 111, 2-Oxo-4-trifluoromethyl-1,2-dihydroquinoline-6-sulfonic acid(4-methyl-2-oxo-2H-chromen-7-yl)amide] | > 10000 nM |
| O=c1cc(C(F)(F)F)c2cc(S(=O)(=O)Nc3cccc(OC(F)(F)F)c3)ccc2[nH]1 [Example 112, 2-Oxo-4-trifluoromethyl-1,2-dihydroquinoline-6-sulfonic acid(3-trifluoromethoxyphenyl)amide] | 120 nM |
| O=c1cc(C(F)(F)F)c2cc(S(=O)(=O)Nc3ccc(CCO)cc3)ccc2[nH]1 [Example 113, 2-Oxo-4-trifluoromethyl-1,2-dihydroquinoline-6-sulfonic acid[4-(2-hydroxyethyl)phenyl]amide] | > 10000 nM |
| O=c1cc(C(F)(F)F)c2cc(S(=O)(=O)Nc3cccc(OCc4ccccc4)c3)ccc2[nH]1 [Example 114, 2-Oxo-4-trifluoromethyl-1,2-dihydroquinoline-6-sulfonic acid(3-benzyloxyphenyl)amide] | > 10000 nM |
| O=c1cc(C(F)(F)F)c2cc(S(=O)(=O)Nc3ccccc3Sc3ccccc3)ccc2[nH]1 [Example 115, 2-Oxo-4-trifluoromethyl-1,2-dihydroquinoline-6-sulfonic acid(2-phenylsulfanylphenyl)amide] | 8130 nM |
| COc1cccc(NS(=O)(=O)c2ccc3[nH]c(=O)cc(C(F)(F)F)c3c2)c1 [Example 116, 2-Oxo-4-trifluoromethyl-1,2-dihydroquinoline-6-sulfonic acid(3-methoxyphenyl)amide] | 340 nM |
| CC(C)NS(=O)(=O)c1ccc2[nH]c(=O)cc(C(F)(F)F)c2c1 [Example 117, 2-Oxo-4-trifluoromethyl-1,2-dihydroquinoline-6-sulfonic acidisopropylamide] | 2340 nM |
| O=c1cc(C(F)(F)F)c2cc(S(=O)(=O)NCc3cccs3)ccc2[nH]1 [Example 118, 2-Oxo-4-trifluoromethyl-1,2-dihydroquinoline-6-sulfonic acid(thiophen-2-ylmethyl)amide] | > 10000 nM |
| COCCNS(=O)(=O)c1ccc2[nH]c(=O)cc(C(F)(F)F)c2c1 [Example 119, 2-Oxo-4-trifluoromethyl-1,2-dihydroquinoline-6-sulfonic acid(2-methoxyethyl)amide] | 4690 nM |
| O=c1cc(C(F)(F)F)c2cc(S(=O)(=O)NC3CCCC3)ccc2[nH]1 [Example 120, 2-Oxo-4-trifluoromethyl-1,2-dihydroquinoline-6-sulfonic acidcyclopentylamide] | 820 nM |
| CC(C)CCNS(=O)(=O)c1ccc2[nH]c(=O)cc(C(F)(F)F)c2c1 [Example 121, 2-Oxo-4-trifluoromethyl-1,2-dihydroquinoline-6-sulfonic acid(3-methylbutyl)amide] | 280 nM |
| CC(C)(C)CCNS(=O)(=O)c1ccc2[nH]c(=O)cc(C(F)(F)F)c2c1 [Example 122, 2-Oxo-4-trifluoromethyl-1,2-dihydroquinoline-6-sulfonic acid(3,3-dimethylbutyl)amide] | 1030 nM |
| O=c1cc(C(F)(F)F)c2cc(S(=O)(=O)NCC3CCCCC3)ccc2[nH]1 [Example 123, 2-Oxo-4-trifluoromethyl-1,2-dihydroquinoline-6-sulfonic acidcyclohexylmethylamide] | 8510 nM |
